Laboratory results: ChEMBL document CHEMBL1135414, “Structure-activity relationships at human and rat A2B adenosine receptors of xanthine derivatives substituted at the 1-, 3-, 7-, and 8-positions” (J Med Chem, 2002)

Experiments:
Adenosine receptor A2b [1] = target: T1, Adenosine receptor A2b (Homo sapiens, UniProt P29275); assay: Binding affinity at human Adenosine A2B receptor expressed in HEK293 cells, using [125I]ABOPX as radioligand; type: cell-based
T1 sequence (P29275 whole entry): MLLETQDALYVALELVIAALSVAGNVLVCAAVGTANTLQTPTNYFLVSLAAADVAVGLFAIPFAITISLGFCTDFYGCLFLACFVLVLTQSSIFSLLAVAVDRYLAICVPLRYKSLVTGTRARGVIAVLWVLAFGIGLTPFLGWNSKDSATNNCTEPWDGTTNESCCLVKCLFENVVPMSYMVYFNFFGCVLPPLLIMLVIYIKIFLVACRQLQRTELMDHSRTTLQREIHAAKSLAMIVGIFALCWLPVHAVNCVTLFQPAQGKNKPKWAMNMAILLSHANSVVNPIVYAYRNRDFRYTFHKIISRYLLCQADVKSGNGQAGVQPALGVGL

Adenosine receptor A3 = target: T2, Adenosine receptor A3 (Homo sapiens, UniProt P0DMS8); assay: Inhibition of [125I]I-AB-MECA binding to human Adenosine A3 receptor
T2 sequence (P0DMS8 whole entry): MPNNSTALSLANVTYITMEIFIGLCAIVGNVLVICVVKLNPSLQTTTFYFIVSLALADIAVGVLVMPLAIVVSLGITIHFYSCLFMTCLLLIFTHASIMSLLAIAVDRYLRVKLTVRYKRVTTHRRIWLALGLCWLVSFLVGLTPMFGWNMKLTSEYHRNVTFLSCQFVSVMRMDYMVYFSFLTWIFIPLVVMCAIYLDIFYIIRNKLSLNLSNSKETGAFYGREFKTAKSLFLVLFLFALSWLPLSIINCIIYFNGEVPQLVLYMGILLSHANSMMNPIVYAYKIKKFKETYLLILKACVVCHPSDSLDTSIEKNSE

Adenosine receptor A2b [2] = target: T3, Adenosine receptor A2b (Rattus norvegicus, UniProt P29276); assay: Inhibition of […] binding to rat Adenosine A2B receptor expressed in HEK cells; type: cell-based, HEK293
T3 sequence (P29276 whole entry): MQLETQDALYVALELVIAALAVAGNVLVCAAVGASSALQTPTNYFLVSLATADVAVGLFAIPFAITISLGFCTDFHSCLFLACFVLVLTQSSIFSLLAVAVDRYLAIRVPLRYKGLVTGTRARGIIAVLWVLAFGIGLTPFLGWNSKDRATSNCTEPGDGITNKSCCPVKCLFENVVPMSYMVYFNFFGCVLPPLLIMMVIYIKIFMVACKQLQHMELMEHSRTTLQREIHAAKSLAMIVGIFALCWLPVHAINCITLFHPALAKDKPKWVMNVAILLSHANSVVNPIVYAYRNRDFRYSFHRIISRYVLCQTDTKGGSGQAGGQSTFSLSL

Adenosine receptor A1 = target: T4, Adenosine receptor A1 (Rattus norvegicus, UniProt P25099); assay: Binding affinity of [3H]R-PIA for rat Adenosine A1 receptor in HEK293 cells
T4 sequence (P25099 whole entry): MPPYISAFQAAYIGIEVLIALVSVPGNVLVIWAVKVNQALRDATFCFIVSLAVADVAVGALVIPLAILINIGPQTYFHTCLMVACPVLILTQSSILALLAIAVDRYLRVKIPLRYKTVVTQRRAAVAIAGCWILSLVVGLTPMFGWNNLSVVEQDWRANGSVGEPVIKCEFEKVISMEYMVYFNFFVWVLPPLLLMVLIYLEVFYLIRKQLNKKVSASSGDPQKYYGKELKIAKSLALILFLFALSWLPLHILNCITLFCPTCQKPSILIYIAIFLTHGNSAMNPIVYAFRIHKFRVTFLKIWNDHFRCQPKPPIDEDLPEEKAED

Rattus norvegicus [3] = organism: Rattus norvegicus; assay: Relative affinities for rat Adenosine A1 and Adenosine A2B receptors
Adenosine receptor A2a = Adenosine receptor A2a (Rattus norvegicus, UniProt P30543); assay: Binding affinity at rat Adenosine A2A receptor by [3H]-CGS- 21680 displacement.
Adenosine receptor A2a, sequence (P30543 whole entry): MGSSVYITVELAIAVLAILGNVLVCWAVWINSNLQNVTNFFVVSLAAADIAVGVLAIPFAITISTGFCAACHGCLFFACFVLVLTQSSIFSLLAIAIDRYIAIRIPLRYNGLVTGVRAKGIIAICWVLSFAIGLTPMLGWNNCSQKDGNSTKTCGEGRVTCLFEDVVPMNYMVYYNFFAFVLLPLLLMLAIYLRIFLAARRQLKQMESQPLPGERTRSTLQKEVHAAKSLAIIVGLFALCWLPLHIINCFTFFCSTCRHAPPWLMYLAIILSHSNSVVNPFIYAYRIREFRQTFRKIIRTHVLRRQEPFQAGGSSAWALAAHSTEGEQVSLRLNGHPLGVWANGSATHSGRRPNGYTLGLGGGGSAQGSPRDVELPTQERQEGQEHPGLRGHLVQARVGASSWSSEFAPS

[4] = target: T5, Adenosine receptor A1 (Rattus norvegicus) (UniProt P25099); assay: Percent displacement of [3H]-R-PIA from rat Adenosine A1 receptor in HEK293 cells; type: cell-based
T5 sequence (whole entry): T4 sequence (P25099 whole entry)

Rattus norvegicus [5] = organism: Rattus norvegicus; assay: Relative affinities for rat Adenosine A2A and Adenosine A2B receptors

Ki (Adenosine receptor A2b [1]) [nM]	Ki (Adenosine receptor A3) [nM]	Ki (Adenosine receptor A2b [2]) [nM]	Ki (Adenosine receptor A1) [nM]	Ratio (Rattus norvegicus [3])	Ki (Adenosine receptor A2a) [nM]	Displacement [4] [%]	Ratio (Rattus norvegicus [5])	Structure (SMILES)
360	2370	1880	3310					CCCn1c(=O)[nH]c2nc[nH]c2c1=O
311		1700		> 6	3570	35	2.1	C=CCn1c(=O)c2c(nc(-c3ccccc3)n2CCCl)n(C)c1=O
